Experimental data as given in patent US20160220567A1, “COMPOSITION FOR TREATING OR PREVENTING BONE DISEASES, COMPRISING HALOFUGINONE AS ACTIVE INGREDIENT” (THE CATHOLIC UNIVERSITY OF KOREA INDUSTRY-ACADEMIC …, priority 2013, published 2016).

What was measured:
[1] = system: osteoclasts; test: Cell cycle during osteoclast differentiation by 7-AAD and BrdU staining; type: cell-based, mouse; details: FIG. 5D
Description: Murine bone marrow cells were differentiated for 5 days by stimulating with M-CSF, RANKL, and halofuginone and subjected to TRAP staining according to the method described in Example <1-8> to confirm the number of TRAP positive cells. Additionally, the expression of c-Fos, JunB, and Jpd2 in the bone marrow cells were confirmed by real-time PCR according to the method described in Example <1-6>. Meanwhile, to examine the effect of halofuginone on cell cycle during the process of osteoclast differentiation, osteoclasts were subjected to 7-AAD and BrdU staining.

[2] = system: CD4 T cells isolated from human peripheral blood; test: Expression of IL-17 and Foxp3 by flow cytometer in human T cells; type: cell-based; details: condition of differentiating Th17 cells, flow cytometry, FIG. 6A
Protocol: The CD4 T cells isolated from human peripheral blood were treated with halofuginone under the condition of differentiating Th17 cells (anti-CD3 (0.5 μg/mL), anti-CD28 (0.5 μg/mL), anti-IFN-γ (10 μg/mL), anti-IL-4 (10 μg/mL), IL-6 (20 ng/mL), and IL-1β (10 ng/mL)) and cultured. Then, the cells were collected, washed with the FACs buffer for flow cytometry analysis, subjected to blocking at 4° C. for the inhibition of non-specific binding for 15 minutes, added with CD4 and CD25 (i.e., cell surface markers) along with anti-CD4-PerCP and anti-CD25-APC and reacted at 4° C. for 30 minutes, and washed with a perm wash buffer. After performing the Cytofix/cytoperm process at 4° C. for 20 minutes, the resultant was washed with the perm wash buffer. Anti Foxp3-FITC and anti IL-17 PE were added thereto, reacted at 4° C. for 30 minutes, and washed with the perm wash buffer. Upon completion of staining, the cells were analyzed using the fluorescentactivated cell sorter (FACs) regarding the expression levels of IL-17 cytokines and Foxp3 according to the halofuginone treatment.

[3] = system: anti-CII-specific IgG, IgG1, and IgG2a; test: Type II collagen-specific IgG, IgG1 and IgG2a in sera by ELISA; type: in vivo, mouse; details: CIA mice, sera 4 weeks after injection, FIG. 1D
Protocol: For the construction of a mouse model with collagen-induced arthritis (hereinafter, referred to as “CIA”), a 6-week old male DBA/1J mouse was subjected to primary immunization by intradermal injection after mixing the bovine type II collagen (hereinafter, referred to as “CII”) and complete Freud's adjuvant (CFA) in an amount of 100 μL, respectively. After a week thereafter, halofuginone was injected intraperitoneally at 3 day intervals at a concentration of 100 μg/kg and 500 μg/kg, respectively (9 weeks).
The concentrations of murine anti-CII-specific IgG, IgG1, and IgG2a were measured by ELISA method by collecting sera from a mouse with arthritis 4 weeks after injecting the mouse with halofuginone (Bethyl Lab Co., Montgomery, Tex., USA). The group treated with a solution in which DMSO was diluted in saline was used as the control group.
The method of measuring the anti-CII-specific IgG, IgG1, and IgG2a antibodies is as follows. The CII was diluted in 0.05M sodium carbonate coating buffer (pH 9.6) at a concentration of 4 μg/mL, coated onto a 96-well microtiter plate, and placed at 4° C. for 18 hours. After removing the coated solution, for the inhibition of non-specific binding, TBS (pH 8.0) containing 1% bovine serum albumin (BSA: Amre-sco, solon, Ohio, USA) was added in an amount of 200 μL thereto and reacted at room temperature for 1 hour. For the measurement of anti-CII-specific IgG, IgG1, and IgG2a antibodies, the specimen was diluted at a 1:1,000 ratio, and in particular, TBS (pH 8.0) containing 1% BSA and 0.05% Tween 20 (Amresco) was used as the diluted solution. Then, the sera sample diluted in advance was added to each well in an amount of 50 μL and reacted at room temperature for 1 hour. […] The absorbance of the resultant was measured at 450 nm using the ELISA reader and the result of antibody measurement was indicated by absorbance itself.

[4] = system: Th17, Th1 and Th2 cells from splenocytes; test: Differentiation of Th17-, Th1-, and Th2 cells from mouse splenocytes by halofuginone treatment; type: cell-based
Protocol: Splenocytes were obtained from mice, that is, the spleens removed from the mice and the spleen tissues were thinly ground using a tearing slide and the red blood cells (RBC) in the splenocytes were removed with the RBC lysis solution. Then, PBS buffer solution was added thereto, and the mixture was centrifuged, and washed to obtain splenocytes. Then, the singe cells (1 ? 10^6) isolated from the spleens were aliquoted into a 24-well plate coated with anti-CD3 antibody (1 μg/mL) were treated under the condition of capable of stimulating Th17 cells (anti-CD28 antibody (1 μg/mL), TGF-β (2 ng/ mL), IL-6 (20 ng/mL), anti-IL-4 (10 μg/mL), and anti-IFN-γ (10 μg/mL); the condition of capable of stimulating Th1 cells (anti-CD28 antibody (1 μg/mL), IL-12 (10 ng/mL), and anti-IL-4 (10 μg/mL)); or the condition of capable of stimulating Th2 cells (anti-CD28 antibody (1 μg/mL), IL-4 (10 ng/mL), and anti-IFN-γ (10 μg/mL)); and the cells were cultured for 3 days, and in particular, cultured after treating the cells with halofuginone at respective concentration and cultured. Specifically, DMSO treatment was used for the control group.

[5] = system: osteoclasts from murine bone marrow cells; test: Bone resorption potential by osteoclasts on Dentine slice, murine bone marrow cells; type: cell-based, mouse; details: M-CSF, RANKL, 21 days, FIG. 5B
Protocol: (§1) To examine the effect of halofuginone on the bone resorption potential by osteoclasts, murine bone marrow cells were cultured in Dentine slice, and the cultured cells were stimulated with M-CSF, RANKL, and halofuginone, and cultured for 21 additional days. Then, the cells were removed using 5% sodium hypochlorite solution, subjected to Hematoxylin staining, and the bone resorption lacunae formed by the bone resorption of osteoclasts were photographed.

[6] = system: osteoclasts from mononuclear cells of human peripheral blood; test: Bone resorption potential by osteoclasts in human cells; type: cell-based; details: FIG. 6D
Protocol: as §1
The effect of halofuginone on the bone resorption potential by osteoclasts was observed using the mononuclear cells of human peripheral blood, in the same manner as described in Example <2-7>.

[7] = condition of differentiating Th17 cells, 3 days, vs DMSO, FIG. 3A

Structure (SMILES): O=C(C[C@H]1NCCC[C@@H]1O)Cn1cnc2cc(Br)c(Cl)cc2c1=O (racemic) [halofuginone]
- progress from G0/G1 into S phase ([1]; 7-AAD and BrdU staining): increased
- expression of ccnd1 encoding Cyclin D1 [1]: increased
- number of Th17 cells [2]: reduces
- number of Treg cells [2]: increasing
- concentration of IgG1 within the sera [3]: significantly decreased
- concentration of IgG2a within the sera [3]: significantly decreased
- concentration of IgG within the sera [3]: significantly decreased
- Th17 cells [4, 7]: inhibited
- Treg cells [4, 7]: increased
- production of IL-4 ([4]; conditions of differentiating Th1 cells, IFN-gamma, and Th2 cells): did not affect
- bone resorption potential [5]: significantly reduced
- bone resorption potential [6]: significantly reduced
